Assay [1] deals with rats anesthetized with pentobarbital sodium. Put plainly: Effects on blood pressure, heart rate, cardiac contraction and dilation in rats anesthetized with pentobarbital sodium. The assay is classed as in vivo, Wistar rats. Details: unit not given here. To be noted: change after injection through femoral vein, '+' = increase, all others = decrease; for MBP: mean blood pressure: n = 3~5, doses mg/kg: 2, 8, 12: 10, 3-7, 9-11, 40-44: 5; for DBP: diastolic blood pressure / HR: heart rate / LVSP: left ventricular systolic pressure / SBP: systolic blood pressure / Vpm: the physiological velocity of contractile element shorting / −dp/dtmax: the maximal rate of the decrease of left ventricular pressure: mean, n = 3~5, doses mg/kg: 2, 8, 12: 10, 3-7, 9-11, 40-44: 5. The protocol:
Biological activity experiment 1. The effects of 16 compounds represented by formula I on blood pressure, heart rate, cardiac contraction and dilation in rats anesthetized with pentobarbital sodium.
The methods of biological activity experiment 1 were as follows: Male Wistar rats, weighing 280±30 g were purchased from the experimental animal center of Academy of Military Medical Sciences. Rats were anesthetized with pentobarbital sodium (45 mg/kg) by peritoneal injection. A PE50 polyethylene catheter was inserted into the left ventricle through right carotid artery for cardiac function measurement with a pressure energe exchanger, wherein the signal is put into a SMUP-PC biosignal processing system. Cardiac functional parameters such as HR, LVSP, +dp/dtmax, −dp/dtmax and Vpm were recorded. Another two PE50 polyethylene catheters were inserted into the right femoral artery and vein respectively for blood pressure measurement wherein the artery cathether was linked to a four-channel physiology recorder (RM-6000) through a MPU-0.5A Type pressure energe exchanger, which recorded SBP, DBP and MBP, while the vein catheter was used for compound administration. The methods were described by Liu Wei et al: Liu Wei, Wang Hai, Xiao Wen-Bin. […] Bull Acad Mil Med Sci 1996;20(4):245˜248.

For assay [2], the system named is outward potassium currents of rat tail arterial SMCs. Put plainly: Whole cell recording of outward potassium currents in rat tail arterial SMCs. In kind it is cell-based, Wistar rats. To be noted: for Currents, + Compound: outward potassium current amplitude after compound 100 μmol L^−1 in the bath; for Currents, + Compound / Currents, Control (before compound application): X ± SD n = 5; for Currents, Control (before compound application): outward potassium current amplitude before compound application, same cells. From the text: Biological activity experiments 6. The effects of novel compounds on potassium currents in isolated arterial vascular smooth muscle cells (SMCs).
The outward currents were, elicited in rat tail arterial SMCs by superfusing extracellular solution under whole cell recording configuration that the depolarizing pulse were applied from −30 mV to +100 mV with the holding potential of −40 mV in 100 ms, 10 mV clamp steps, a frequency of 5 KHz. The compounds were applied in the bath at the concentrations of 100 μmol L^−1. The amplitude of the outward potassium currents was recorded before and after compound application Values were expressed as means±SD. Statistical significance between two groups was evaluated by student's t-test for paired data * P<0.05 **P<0.01 vs control.
1. Preparation of single smooth muscle cells from rat tail arteries: Male Wistar rats (200-250 g) were killed by exsanguination. The tail artery was dissected out and transferred into cold physiological salt solution (PSS) of the following composition (in mM): NaCl 118.3, KCl 4.7, KH2PO4 1.2, MgSO4 1.2, NaHCO3 25.0, CaCl2 2.5, EDTA 0.026 and Glucose 5.0 pH7.4. With the use of a dissecting microscope, the connective tissues were removed and the artery was cut open longitudinally. Endothelium was removed carefully with a cotton swab then the artery was cut into segments with 1 mm long and placed in 4° C. the extracellular solution containing (in mM) NaCl 130, KCl 5, MgCl2 1.2, HEPES 10, Glucose 10, pH7.2 for 20 min. After this incubation, the medium was changed to enzyme solution which was composed of collagenase I (1 mg ml^−1), papain (5 mg ml^−) and bovine serum albumin (2 mg ml^−1). The tissues, were incubated in this solution for 40 min, and then rinsed three times triturated using a fire-polished Pasteur pipette until the medium turned cloudily. The cell suspension was stored in the refrigerator at 4° C.
3. Whole cell recordings: A bath dish with the smooth muscle cells (SMCs) attached and superfused with the extracellular solution at a flow rate of 2 ml min^−1 was mounted onto the stage of an inverted-phase contrast microscope. The microelectrodes having a resistance of (5-8 MΩ) were made from boroscilicate thin-wall glass capillaries, using an automatic multiple-stage, electronic puller (PP830 Japan) and then heat-polished. After establishing a high resistance seal, the patch membrane was disrupted by negative pressure. A commercial patch clamp amplifier (Axon 200B) was used to generate and apply voltages and sample current signals from the cell.

Assay [3] deals with spontaneously hypertensive rats. Put plainly: Acute antihypertensive effects in conscious spontaneously hypertensive rats. In kind it is in vivo. The following applies: po mg/kg: compound 1 3, pinacidil 3, nifedipine 10, bisoprolol 60, captopril 40, means ± SD, 9-13 rats. From the text:
Biological activity experiment 2. The acute antihypertensive effects of compound 1 in conscious spontaneously hypertensive rats.
The methods of biological activity experiment 2 were described by Long Chao-Liang et al: Long Chao-Liang, Wang Hai, Xiao Wen-Bin. Effects of pinacidil on, hypertensive vascular remodeling. Chin J Pharmacol Toxicol 1997; 11(1):42-46.

Assay [4] has as its system rats anesthetized with pentobarbital sodium. Briefly: Antagonism of glibenclamide on the cardiovascular effects in anesthetized rats. The following applies: iv mg/kg: pinacidil 1.0, nifedipine 1.0, compound 1 0.5, means ± SE. In kind it is in vivo, Wistar rats. The protocol: The methods of biological activity experiment 1 were as follows: Male Wistar rats, weighing 280±30 g were purchased from the experimental animal center of Academy of Military Medical Sciences. Rats were anesthetized with pentobarbital sodium (45 mg/kg) by peritoneal injection. A PE50 polyethylene catheter was inserted into the left ventricle through right carotid artery for cardiac function measurement with a pressure energe exchanger, wherein the signal is put into a SMUP-PC biosignal processing system. Cardiac functional parameters such as HR, LVSP, +dp/dtmax, −dp/dtmax and Vpm were recorded. Another two PE50 polyethylene catheters were inserted into the right femoral artery and vein respectively for blood pressure measurement wherein the artery cathether was linked to a four-channel physiology recorder (RM-6000) through a MPU-0.5A Type pressure energe exchanger, which recorded SBP, DBP and MBP, while the vein catheter was used for compound administration. The methods were described by Liu Wei et al: Liu Wei, Wang Hai, Xiao Wen-Bin.
The methods of Biological activity experiment 3 were the same as those described in the biological activity experiment 1.

Where [5] appears, read: A: after administration (30 min after pinacidil, 10 min nifedipine, 15 min compound 1), glibenclamide 20 iv pretreatment.
Setting [6] is: B: before administration, glibenclamide 20 iv pretreatment ten minutes.

Marks after values point to notes of the source that are not given here.

Turning to `CC(C)C(C)(C)N` [compound 2], in assay [1], the “MBP: mean blood pressure” value was 24, the “DBP: diastolic blood pressure” value is reported as 15, the “HR: heart rate” value is given as 20 and the “LVSP: left ventricular systolic pressure” value turned out to be 116. Moreover, in assay [1], the “SBP: systolic blood pressure” value is reported as 38, the “Vpm: the physiological velocity of contractile element shorting” value (“Vpm: the physiological velocity” below) was 1.16 and the “−dp/dtmax: the maximal rate of the decrease of left ventricular pressure” value is 54. Moreover, in assay [2], the “Currents, + Compound” value worked out at 1.01 ± 0.57 nA and the “Currents, Control (before compound application)” value (from here on “Currents, Control”) is 0.91 ± 0.49 nA.
Consider `CNC(C)(C)C(C)C` [compound 3], for which, in assay [1], the “MBP: mean blood pressure” value is reported as 22, the “DBP: diastolic blood pressure” value is listed as 19, the “HR: heart rate” value is 43 and the “LVSP: left ventricular systolic pressure” value amounted to 111. In assay [1], the “SBP: systolic blood pressure” value is listed as 29, the “Vpm: the physiological velocity” value was 0.49 and the “−dp/dtmax: the maximal rate of the decrease of left ventricular pressure” value came to 157. In addition, in assay [2], the “Currents, + Compound” value is recorded as 0.60 ± 0.34 nA and the “Currents, Control” value came to 0.56 ± 0.31 nA.
Regarding `CCNC(C)(C)C(C)C` [compound 4], in assay [1], the “MBP: mean blood pressure” value is listed as 25, the “DBP: diastolic blood pressure” value came to 23, the “HR: heart rate” value was found to be 44 and the “LVSP: left ventricular systolic pressure” value is listed as 146. In addition, in assay [1], the “SBP: systolic blood pressure” value is on record as 31, the “Vpm: the physiological velocity” value was determined as 0.45 and the “−dp/dtmax: the maximal rate of the decrease of left ventricular pressure” value was determined as 177. In assay [2], the “Currents, + Compound” value was 0.69 ± 0.14** nA and the “Currents, Control” value worked out at 0.61 ± 0.12 nA.
As for `CCCCNC(C)(C)C(C)C` [compound 6, N-butyl-2,3-dimehyl-2-butylamine], in assay [1], the “MBP: mean blood pressure” value stood at 49, the “DBP: diastolic blood pressure” value is given as 43, the “HR: heart rate” value is 111 and the “LVSP: left ventricular systolic pressure” value is 263. Further, in assay [1], the “SBP: systolic blood pressure” value was determined as 61, the “Vpm: the physiological velocity” value is on record as 0.98 and the “−dp/dtmax: the maximal rate of the decrease of left ventricular pressure” value is 276. Also, in assay [2], the “Currents, + Compound” value is 1.18 ± 0.54* nA and the “Currents, Control” value is 0.49 ± 0.23 nA.
As for `CCC(C)NC(C)(C)C(C)C` (stereo not drawn) [compound 13, N-(1-methylpropyl)-2,3-dimethyl-2-butylamine], in assay [2], the “Currents, + Compound” value is recorded as 0.85 ± 0.31** nA and the “Currents, Control” value was found to be 0.55 ± 0.34 nA.
Taken in the same sequence, the figures for `CC(C)C(C)(C)NCC1CC1` [compound 15, N-cyclopropylmethyl-2,3-dimethyl-2-butylamine] were 1.30 ± 0.45* nA and 0.83 ± 0.24 nA.
As for `CC(C)C(C)(C)NCc1ccccc1` [compound 24], in assay [2], the “Currents, + Compound” value amounted to 0.63 ± 0.19 nA and the “Currents, Control” value is given as 0.65 ± 0.19 nA.
As to `C=CCNC(C)(C)C(C)C` [compound 25, N-allyl-2,3-dimethyl-2-butylamine], in assay [2] (100 μmol L^−1, rat tail arterial SMCs), the “stimulation of potassium channel activities (in words)” value is given as “Maximum potency”. Moreover, in assay [2], the “Currents, + Compound” value was 1.46 ± 0.50** nA and the “Currents, Control” value stood at 0.68 ± 0.19 nA.
Turning to `CC(C)C(C)(C)NC(=O)c1cccnc1` [compound 39], in assay [2], the “Currents, + Compound” value is 0.51 ± 0.22 nA and the “Currents, Control” value stood at 0.46 ± 0.14 nA.
Consider `COC(=O)C1=C(C)NC(C)=C(C(=O)OC)C1c1ccccc1[N+](=O)[O-]` [nifedipine], for which the “SBP at 1 h after administration” value in assay [3] (1 h) stood at 186 ± 6 mmHg. Besides, the “heart rates at 1 h” value in assay [3] (1 h, in bpm (unit assumed)) is reported as 410 ± 11. For the same compound, the “SBP at 3 h after administration” value in assay [3] (3 h) is 219 ± 12 mmHg. Moreover, the “heart rates at 3 h” value in assay [3] (3 h, in bpm (unit assumed)) came out at 410 ± 31. Further, the “SBP at 5 h after administration” value in assay [3] (5 h) amounted to 235 ± 5 mmHg. Besides, the “heart rates at 5 h” value in assay [3] (5 h, in bpm (unit assumed)) stood at 367 ± 24. The “SBP at 9 h after administration” value in assay [3] (9 h) was 240 ± 6 mmHg. Further, in assay [3] (9 h, in bpm (unit assumed)), the “heart rates at 9 h” value is given as 365 ± 13. The “SBP at 12 h after administration” value in assay [3] (12 h) is on record as 242 ± 4 mmHg. In addition, in assay [3] (12 h, in bpm (unit assumed)), the “heart rates at 12 h” value was determined as 365 ± 16. For the same compound, in assay [3] (24 h), the “SBP at 24 h after administration” value worked out at 242 ± 4 mmHg. Besides, the “heart rates at 24 h” value in assay [3] (24 h, in bpm (unit assumed)) is given as 364 ± 22. In assay [3] (base value before administration), this compound showed an SBP base value of 242 ± 5 mmHg. Also, in assay [3] (base value before administration, in bpm (unit assumed)), the “heart rates base value” was 352 ± 19. Besides, in assay [4] (setting [5]), the DBP was determined as 62 ± 7 mmHg, the LVSP is listed as 113 ± 7 mmHg, the MBP is 76 ± 8 mmHg and the Vpm is listed as 4.2 ± 0.5 /a. In assay [4] (setting [6]), the DBP was 95 ± 8 mmHg, the LVSP stood at 131 ± 6 mmHg, the MBP was 111 ± 7 mmHg and the Vpm is given as 5.7 ± 0.1 /a.

The values above are taken from patent publication US7560473B2 (Institute of Pharmacology and Toxicology Academy of …, priority 2001, dated 2009).
